# Measurements from patent publication US10370371B2, “Substituted pyrimidine Bmi-1 inhibitors” (PTC Therapeutics, Inc., priority 2013, dated 2019).
# System: Bmi-1 protein
# Assay: Sandwich ELISA Assay (Bmi-1 protein level in HT-1080 cells)
# Format: cell-based
# Protocol: Cell Seeding and Compound Treatment (Day 1):
# HT-1080 cells were seeded at 8000 cells/well (50 μL) in 96-well tissue culture plates. After the cells became adherent (3-4 hours), 2× diluted stocks of test compounds in 50 μL DMEM containing 1% DMSO (final DMSO concentration was 0.5%) were added and the plates were incubated at 37° C. under 5% CO2 for 40-48 hours.
# ELISA Plate First Antibody Preparation (Day 2):
# The First Antibody (Millipore Mouse, monoclonal to mouse Bmi-1, clone F6, catalog #05-637) diluted to 2 μg/mL in PBS was added (100 μL) to each well of a Nunc MaxiSorp 96-well ELISA plate. The plate was covered with a plate seal and allowed to stand overnight.
# Cell Lysate Preparation (Day 3):
# Fresh Lysis buffer (1×) was prepared on the day of the assay as follows: 1 mM EDTA, 150 mM NaCl, 0.5% Triton-X 100, 10 mM NaF, 20 mM B-Glycerophosphate, 1 mM DTT (in PBS, pH 7.2-7.4) and HALT protease inhibitor cocktail (1×) (Pierce #78410).
# Lysis Buffer (1×, 40 μL) was added to each well and the plate was shaken for 5-10 minutes on an orbital shaker to allow cell lysis, then diluent (1% BSA in PBS in 0.5% NP40) (100 μL) was added to each well.
# A standard curve was prepared at the following Bmi-1 concentrations: 8000, 4000, 2000, 1000, 500, 250, 125 and 0 pg/mL. The Bmi-1 Recombinant Protein Standard (Novus Biologicals PCGF4 Recombinant Protein (P01), catalog # H00000648-P01) used to prepare the standard curve was stored at −80° C. On first thaw, the Recombinant Protein Standard was diluted to 10 μg/μL in Blocking Buffer (1% BSA in PBS; BSA: Fisher Scientific Catalog #1600-100). Aliquots were taken and refrozen at −80° C. The aliquots may be kept at 4° C. and reused after first thaw, but only within 1-2 weeks. The Recombinant Protein Standard contains a GST-fusion tag that appears at approximately 70 Kda on Western Blot.
# The prepared ELISA plate was washed 3× with Wash Buffer (0.05% Tween-20 in PBS). The final wash was removed from the plate and the plate was blotted dry. Blocking Buffer (300 μL) (1% BSA in PBS) was added to each well. The plate was covered with a plate seal and incubated at room temperature for 1 hour. The blocked plate was washed 3× with Wash Buffer, then the final wash was removed and the plate was blotted dry. The previously prepared samples and standards were added (100 μL/well) and the plate was covered with a plate seal and incubated at 4° C. overnight.
# The prepared ELISA plate was removed from incubation and allowed to stand at room temperature for 30 minutes, then washed and blotted dry. The Second Antibody (Cell Signaling Rabbit anti-Bmi-1, Cat#2830) diluted to 1:600 in Blocking Buffer was added (100 μL) to each well, except as needed for background control wells. The plate was covered with a plate seal and incubated for 1.5 hrs at room temperature.
# The ELISA plate was washed and blotted dry as previously described. The Third Antibody (Cell Signaling HRP conjugated anti-rabbit IgG (CellSignaling, Cat#:7074) diluted to 1:300 in Blocking Buffer was added (100 μL) to each well, except as needed for background control wells. The plate was incubated for 1 hr at room temperature.
# The plate was washed and blotted dry, then a previously prepared TMB substrate (TMB substrate kit, Pierce catalog #34021) (prepared by mixing kit reagents 1:1) (100 μL) was added per well. The plate was incubated for 20-30 minutes at room temperature in the dark, then Stop Solution (2 M sulfuric acid in water) (50 μL) was added per well. The plates were read at OD450 (experimental) and OD570 (reference).
row,SMILES,EC50 [nM]
1,"Cc1nc2ccc(F)cn2c1-c1cc(N)nc(Nc2ccc(C(F)(F)F)cc2)n1 [Cpd 1, 6-(6-fluoro-2-methylimidazo[1,2-a]pyridin-3-yl)-N^2-[4-(trifluoromethyl)phenyl]pyrimidine-2,4-diamine]",1 to 10
2,"Cc1nn(C)c(C)c1-c1cc(N)nc(Nc2ccc(C(F)(F)F)cc2)n1 [Cpd 3, N^2-[4-(trifluoromethyl)phenyl]-6-(1,3,5-trimethyl-1H-pyrazol-4-yl)pyrimidine-2,4-diamine]",1 to 10
3,"Cc1nc2ccc(F)cc2n1-c1cc(N)nc(Nc2ccc(C(F)(F)F)cc2)n1 [Cpd 4, 6-(6-fluoro-2-methyl-1H-benzimidazol-1-yl)-N^2-[4-(trifluoromethyl)phenyl]pyrimidine-2,4-diamine]",10 to 100
4,"Cc1nc2ccccc2n1-c1cc(Cl)nc(Nc2ccc(C(F)(F)F)cc2)n1 [Cpd 6, 4-chloro-6-(2-methyl-1H-benzimidazol-1-yl)-N-[4-(trifluoromethyl)phenyl]pyrimidin-2-amine]",100 to 3000
5,"Cc1nc2ccccc2n1-c1cc(N)nc(Nc2ccc(C(F)(F)F)cc2)n1 [Cpd 7, 6-(2-methyl-1H-benzimidazol-1-yl)-N^2-[4-(trifluoromethyl)phenyl]pyrimidine-2,4-diamine]",10 to 100
6,"Cc1nc2ccccc2n1-c1cc(Cl)nc(Nc2ccc(C(F)(F)F)c(F)c2)n1 [Cpd 8, 4-chloro-N-[3-fluoro-4-(trifluoromethyl)phenyl]-6-(2-methyl-1H-benzimidazol-1-yl)pyrimidin-2-amine]",100 to 3000
7,"Nc1cc(-c2c(C3CC3)nc3ccc(F)cn23)nc(Nc2ccc(OC(F)F)c(F)c2)n1 [Cpd 9, 6-(2-cyclopropyl-6-fluoroimidazo[1,2-a]pyridin-3-yl)-N^2-[4-(difluoromethoxy)-3-fluorophenyl]pyrimidine-2,4-diamine]",1 to 10
8,"Cc1nc2ccc(F)cc2n1-c1cc(N)nc(Nc2ccc(OC(F)F)c(F)c2)n1 [Cpd 10, N^2-[4-(difluoromethoxy)-3-fluorophenyl]-6-(6-fluoro-2-methyl-1H-benzimidazol-1-yl)pyrimidine-2,4-diamine]",10 to 100
9,"Cc1nc2ccccc2n1-c1cc(N)nc(Nc2ccc(C(F)(F)F)c(F)c2)n1 [Cpd 13, N^2-[3-fluoro-4-(trifluoromethyl)phenyl]-6-(2-methyl-1H-benzimidazol-1-yl)pyrimidine-2,4-diamine]",100 to 3000
10,"Cc1nc2ccccc2n1-c1cc(N)nc(Nc2ccc(OC(F)F)c(F)c2)n1 [Cpd 14, N^2-[4-(difluoromethoxy)-3-fluorophenyl]-6-(2-methyl-1H-benzimidazol-1-yl)pyrimidine-2,4-diamine]",10 to 100
11,"Cc1nc2ccccc2n1-c1cc(NCCO)nc(Nc2ccc(C(F)(F)F)cc2)n1 [Cpd 15, 2-{[6-(2-methyl-1H-benzimidazol-1-yl)-2-{[4-(trifluoromethyl)phenyl]amino}pyrimidin-4-yl]amino}ethanol]",100 to 3000
12,"Cc1nc2ccccc2n1-c1cc(NCCO)nc(Nc2ccc(C(F)(F)F)c(F)c2)n1 [Cpd 16, 2-{[2-{[3-fluoro-4-(trifluoromethyl)phenyl]amino}-6-(2-methyl-1H-benzimidazol-1-yl)pyrimidin-4-yl]amino}ethanol]",100 to 3000

# Next, values leading:
row,EC50 [nM],SMILES
1,100 to 3000,"Cc1nc2ccccc2n1-c1cc(NCCO)nc(Nc2ccc(OC(F)F)c(F)c2)n1 [Cpd 17, 2-{[2-{[4-(difluoromethoxy)-3-fluorophenyl]amino}-6-(2-methyl-1H-benzimidazol-1-yl)pyrimidin-4-yl]amino}ethanol]"
2,100 to 3000,"Cc1nc2cc(F)c(F)cc2n1-c1cc(Cl)nc(Nc2ccc(C(F)(F)F)cc2)n1 [Cpd 18, 4-chloro-6-(5,6-difluoro-2-methyl-1H-benzimidazol-1-yl)-N-[4-(trifluoromethyl)phenyl]pyrimidin-2-amine]"
3,100 to 3000,"Cc1nc2cc(F)c(F)cc2n1-c1cc(Cl)nc(Nc2ccc(C(F)(F)F)c(F)c2)n1 [Cpd 19, 4-chloro-6-(5,6-difluoro-2-methyl-1H-benzimidazol-1-yl)-N-[3-fluoro-4-(trifluoromethyl)phenyl]pyrimidin-2-amine]"
4,10 to 100,"Cc1nc2cc(F)c(F)cc2n1-c1cc(N)nc(Nc2ccc(C(F)(F)F)cc2)n1 [Cpd 20, 6-(5,6-difluoro-2-methyl-1H-benzimidazol-1-yl)-N^2-[4-(trifluoromethyl)phenyl]pyrimidine-2,4-diamine]"
5,100 to 3000,"Cc1nc2cc(F)c(F)cc2n1-c1cc(NCCO)nc(Nc2ccc(C(F)(F)F)cc2)n1 [Cpd 21, 2-{[6-(5,6-difluoro-2-methyl-1H-benzimidazol-1-yl)-2-{[4-(trifluoromethyl)phenyl]amino}pyrimidin-4-yl]amino}ethanol]"
6,10 to 100,"Cc1nc2ccccc2n1-c1cc(NO)nc(Nc2ccc(C(F)(F)F)cc2)n1 [Cpd 22, N^4-hydroxy-6-(2-methyl-1H-benzimidazol-1-yl)-N^2-[4-(trifluoromethyl)phenyl]pyrimidine-2,4-diamine]"
7,10 to 100,"CCc1nc2ccccc2n1-c1cc(N)nc(Nc2ccc(C(F)(F)F)cc2)n1 [Cpd 23, 6-(2-ethyl-1H-benzimidazol-1-yl)-N^2-[4-(trifluoromethyl)phenyl]pyrimidine-2,4-diamine]"
8,100 to 3000,"Cc1nc2cc(F)c(F)cc2n1-c1cc(N)nc(Nc2ccc(C(F)(F)F)c(F)c2)n1 [Cpd 24, 6-(5,6-difluoro-2-methyl-1H-benzimidazol-1-yl)-N^2-[3-fluoro-4-(trifluoromethyl)phenyl]pyrimidine-2,4-diamine]"
9,100 to 3000,"Nc1cc(-c2ccnc3ccccc23)nc(Nc2ccc(C(F)(F)F)cc2)n1 [Cpd 25, 6-(quinolin-4-yl)-N^2-[4-(trifluoromethyl)phenyl]pyrimidine-2,4-diamine]"
10,10 to 100,"CCc1nc2ccc(F)cc2n1-c1cc(N)nc(Nc2ccc(C(F)(F)F)cc2)n1 [Cpd 26, 6-(2-ethyl-6-fluoro-1H-benzimidazol-1-yl)-N^2-[4-(trifluoromethyl)phenyl]pyrimidine-2,4-diamine]"
11,10 to 100,"Nc1cc(-n2c(C3CC3)nc3ccc(F)cc32)nc(Nc2ccc(C(F)(F)F)cc2)n1 [Cpd 27, 6-(2-cyclopropyl-6-fluoro-1H-benzimidazol-1-yl)-N^2-[4-(trifluoromethyl)phenyl]pyrimidine-2,4-diamine]"
12,1 to 10,"Nc1cc(-c2c(CO)nc3ccccn23)nc(Nc2ccc(C(F)(F)F)cc2)n1 [Cpd 28, [3-(6-amino-2-{[4-(trifluoromethyl)phenyl]amino}pyrimidin-4-yl)imidazo[1,2-a]pyridin-2-yl]methanol]"
13,10 to 100,"Nc1cc(-c2c(CO)nc3ccc(F)cn23)nc(Nc2ccc(C(F)(F)F)cc2)n1 [Cpd 29, [3-(6-amino-2-{[4-(trifluoromethyl)phenyl]amino}pyrimidin-4-yl)-6-fluoroimidazo[1,2-a]pyridin-2-yl]methanol]"
14,100 to 3000,"Cc1nc2ccccc2n1-c1cc(Cl)nc(Nc2ccc(OC(F)F)c(F)c2)n1 [Cpd 30, 4-chloro-N-[4-(difluoromethoxy)-3-fluorophenyl]-6-(2-methyl-1H-benzimidazol-1-yl)pyrimidin-2-amine]"
15,1 to 10,"Cc1nc2ncc(Cl)cc2n1-c1cc(N)nc(Nc2ccc(C(F)(F)F)cc2)n1 [Cpd 31, 6-(6-chloro-2-methyl-1H-imidazo[4,5-b]pyridin-1-yl)-N^2-[4-(trifluoromethyl)phenyl]pyrimidine-2,4-diamine]"
16,10 to 100,"CCc1nc2ncc(Cl)cc2n1-c1cc(N)nc(Nc2ccc(C(F)(F)F)cc2)n1 [Cpd 32, 6-(6-chloro-2-ethyl-1H-imidazo[4,5-b]pyridin-1-yl)-N^2-[4-(trifluoromethyl)phenyl]pyrimidine-2,4-diamine]"
17,10 to 100,"Cc1nc2c(F)cc(F)cc2n1-c1cc(N)nc(Nc2ccc(C(F)(F)F)cc2)n1 [Cpd 34, 6-(4,6-difluoro-2-methyl-1H-benzimidazol-1-yl)-N^2-[4-(trifluoromethyl)phenyl]pyrimidine-2,4-diamine]"
